Measured values: ChEMBL document CHEMBL1201862, “PubChem BioAssay data set” (2004)
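Interpolation was linear, between the two tested concentrations surrounding the appropriate level; five concentrations were tested over 48 hours in 96-well plates. GI50 marks 50% less growth.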 Calls of active or inactive are those of the source. No stated cut-off is given here; in the data, active = GI50 up to about 1.1 µM and inactive = higher.

Tests used:
Experiment in all cases: NCI anticancer screen, dose series, 48 h
RXF 393 = system: RXF 393
MDA-MB-435 = system: MDA-MB-435
KM12 = system: KM12
HCT-116 = system: HCT-116
T47D = system: T47D
MDA-N = system: MDA-N
SNB-75 = system: SNB-75
PC-3 = system: PC-3
EKVX = system: EKVX
HOP-92 = system: HOP-92
HOP-62 = system: HOP-62
SK-MEL-2 = system: SK-MEL-2
SF-539 = system: SF-539
SW-620 = system: SW-620
NCI-H23 = system: NCI-H23
M14 = system: M14
MDA-MB-231 = system: MDA-MB-231
786-0 = system: 786-0
HT-29 = system: HT-29
NCI-H460 = system: NCI-H460

Measured: GI50

Cc1cn(C2CC(n3cc(Cn4cc(F)c(=O)[nH]c4=O)nn3)C(CO)O2)c(=O)[nH]c1=O (stereo not given)
inactive: RXF 393 > 100 µM | MDA-MB-435 > 100 µM | KM12 > 100 µM | HCT-116 > 100 µM | T47D > 100 µM | MDA-N > 100 µM | SNB-75 > 100 µM | PC-3 > 100 µM | EKVX > 100 µM | HOP-92 > 100 µM | HOP-62 > 100 µM | SK-MEL-2 > 100 µM | SF-539 > 100 µM | SW-620 > 100 µM | NCI-H23 > 100 µM | M14 > 100 µM | MDA-MB-231 > 100 µM | 786-0 > 100 µM

CCN(CC)CCNC(=O)c1cc2cc(NC(=O)c3cc4cc([N+](=O)[O-])ccc4[nH]3)ccc2[nH]1
inactive: RXF 393 > 43.9 µM | MDA-MB-435 37.5 µM | HT-29 2.93 µM | KM12 1.71 µM | HCT-116 2.85 µM | T47D 18.4 µM | MDA-N 52.8 µM | SNB-75 4.89 µM | NCI-H460 2.92 µM | PC-3 > 39 µM | EKVX 4.98 µM | HOP-92 11 µM | HOP-62 > 77.1 µM | SK-MEL-2 > 52.6 µM | SF-539 6.43 µM | SW-620 6.11 µM | NCI-H23 8.49 µM | M14 57.8 µM | MDA-MB-231 3.83 µM | 786-0 2.25 µM

Cc1ccc(S(=O)(=O)[N-]C2C(=O)c3ccccc3C(=O)C2[n+]2cccc(C(N)=O)c2)cc1 (stereo not given)
inactive: RXF 393 > 100 µM | MDA-MB-435 > 100 µM | HT-29 > 100 µM | KM12 > 100 µM | HCT-116 17.4 µM | T47D 24 µM | MDA-N 34.8 µM | SNB-75 > 100 µM | NCI-H460 > 100 µM | PC-3 > 100 µM | EKVX > 100 µM | HOP-92 > 100 µM | HOP-62 > 100 µM | SK-MEL-2 > 100 µM | SF-539 > 100 µM | SW-620 > 100 µM | NCI-H23 > 100 µM | M14 > 100 µM | MDA-MB-231 32.6 µM | 786-0 30.8 µM

CS[C@]12[C@@H]3C(=O)N(C)C(=O)[C@@H]3[C@](C)(C(=O)N1C)C(=O)N2c1ccccc1
inactive: RXF 393 > 100 µM | MDA-MB-435 > 100 µM | HT-29 > 100 µM | KM12 > 100 µM | HCT-116 > 100 µM | T47D > 100 µM | MDA-N > 100 µM | SNB-75 > 100 µM | PC-3 > 100 µM | EKVX > 100 µM | HOP-92 > 100 µM | HOP-62 > 100 µM | SK-MEL-2 > 100 µM | SF-539 > 100 µM | SW-620 > 100 µM | NCI-H23 > 100 µM | M14 > 100 µM | MDA-MB-231 > 100 µM | 786-0 > 100 µM

CCOC1OC(COC(=O)C(C)(C)C)C(O)CC1n1cc(C)c(=O)[nH]c1=O (stereo not given)
inactive: RXF 393 > 100 µM | MDA-MB-435 > 100 µM | HT-29 > 100 µM | KM12 > 100 µM | HCT-116 > 100 µM | T47D > 100 µM | MDA-N > 100 µM | SNB-75 > 100 µM | NCI-H460 > 100 µM | PC-3 > 100 µM | EKVX > 100 µM | HOP-92 > 100 µM | SK-MEL-2 > 100 µM | SF-539 > 100 µM | SW-620 > 100 µM | NCI-H23 > 100 µM | M14 > 100 µM | MDA-MB-231 > 100 µM | 786-0 > 100 µM

CCn1c(-c2cc(OC)cc(OC)c2)nc2c1C(=O)c1ccccc1C2=O
inactive: RXF 393 13.9 µM | MDA-MB-435 > 100 µM | HT-29 > 100 µM | KM12 > 100 µM | HCT-116 > 100 µM | T47D > 100 µM | MDA-N > 100 µM | SNB-75 22.4 µM | NCI-H460 > 100 µM | PC-3 > 100 µM | EKVX > 100 µM | HOP-92 60 µM | HOP-62 64.6 µM | SF-539 > 100 µM | SW-620 > 100 µM | NCI-H23 > 100 µM | M14 > 100 µM | MDA-MB-231 > 100 µM | 786-0 45.4 µM

O=C(Cn1c(C(=O)/C=C/c2ccco2)nc2ccccc21)c1ccc(Cl)cc1
inactive: RXF 393 30.4 µM | MDA-MB-435 12.1 µM | HT-29 26.1 µM | KM12 14.9 µM | HCT-116 16.3 µM | T47D 31.6 µM | MDA-N 17.1 µM | SNB-75 29 µM | NCI-H460 12.3 µM | PC-3 15.8 µM | HOP-92 26.4 µM | HOP-62 46.8 µM | SK-MEL-2 12.3 µM | SF-539 44.9 µM | SW-620 25.4 µM | NCI-H23 11.9 µM | M14 19.9 µM | MDA-MB-231 20.2 µM | 786-0 14.3 µM

CCOC(CCNCC(OCC)OCC)OCC
inactive: RXF 393 > 10 µM | MDA-MB-435 > 10 µM | HT-29 > 10 µM | KM12 > 10 µM | HCT-116 > 10 µM | T47D > 10 µM | MDA-N > 10 µM | SNB-75 > 10 µM | NCI-H460 > 10 µM | PC-3 > 10 µM | EKVX > 10 µM | HOP-92 > 10 µM | HOP-62 > 10 µM | SK-MEL-2 > 10 µM | SF-539 > 10 µM | NCI-H23 > 10 µM | M14 > 10 µM | MDA-MB-231 > 10 µM | 786-0 > 10 µM

COc1ccc(-n2c(=O)n(-c3ccccc3)c(=O)n2-c2ccc(OC)cc2)cc1
inactive: RXF 393 > 100 µM | MDA-MB-435 > 100 µM | KM12 > 100 µM | HCT-116 > 100 µM | T47D > 100 µM | MDA-N > 100 µM | SNB-75 > 100 µM | PC-3 > 100 µM | EKVX > 100 µM | HOP-92 27.7 µM | HOP-62 > 100 µM | SK-MEL-2 > 100 µM | SF-539 > 100 µM | SW-620 > 100 µM | NCI-H23 > 100 µM | M14 > 100 µM | MDA-MB-231 > 100 µM | 786-0 > 100 µM

O=C1C[C@@]23CCC4(CC2=CCC[C@H]3O1)OCCO4
inactive: RXF 393 > 100 µM | MDA-MB-435 > 100 µM | HT-29 > 100 µM | KM12 > 100 µM | HCT-116 > 100 µM | T47D > 100 µM | MDA-N > 100 µM | NCI-H460 > 100 µM | PC-3 > 100 µM | EKVX > 100 µM | HOP-92 > 100 µM | HOP-62 > 100 µM | SK-MEL-2 > 100 µM | SF-539 > 100 µM | SW-620 > 100 µM | NCI-H23 > 100 µM | M14 > 100 µM | MDA-MB-231 > 100 µM | 786-0 > 100 µM
